# Experimental data published in patent publication US20040127428A1, “Use of D-ribose, including as a topical vehicle, to promote faster healing, including from surgical procedures” (priority 2002, published 2004).
# Key:
# actinic keratoses = test: daily oral intake of D-ribose by the inventor, actinic keratoses; type: in vivo, human; conditions: 10 grams of D-ribose by mouth daily, after several months; inventor on themself
# From the text: Another use for D-ribose is with certain skin lesions that are the result of solar-caused degeneration of the skin by exposure to the sun. This condition is commonly referred to as actinic keratosis. […] Since 5% of these lesions degenerate into squamous cell carcinomas, the use of ribose alone would be useful. On the other hand, it also may be used as part of a topical formulation. Topical 5-fluorouracil formulations (5-fluorouracil being a pyrimidine analogue with anti-neoplastic action because certain neoplasms incorporate uracil into their ribonucleic acid more readily than in normal cells) have been used to eradicate actinic keratosis in place of “spot” cryosurgery and curettage, with as much as 5% fluorouracil used. Recently there came on the market a new microsphere-based formulation using a microsphere vehicle called Microsponge® in a topical cream containing only 0.5% fluorouracil. It is applied once daily with good results and less than 1/40th the systemic fluorouracil absorption compared to that of 5% fluorouracil. The course of treatment ranged over a 4-week period. While using D-ribose systemically by itself works slowly on presumed, non-malignant actinic keratoses and senile keratoses when malignancy is questioned (as it always must be even with a histological or clinical diagnosis to the contrary), using D-ribose systemically is not enough for every case.
# wound or burn = test: healing of wounds and burns with ribose, alone or with antibiotics; type: in vivo; conditions: ribose by itself, taken internally and/or placed on the skin
# From the text: TENS devices were part of patent application No. 09/545,121 as one of the non-living source energy devices and how they relate to D-ribose. Shortly before the turn of the 21st century, an important ATP precursor, D-ribose, became commercially available at prices low enough to enable it to be mass marketed. Before this Carniglia, et al, in U.S. Pat. Nos. 4,923,851 and 5,391,550 taught that ribose along with other nutrients helped heal induced skin lesions in mice but only as one of several listed precursors. […] The reason for this is that ribose is not available in quantity in food like other nutrients are. This component of ATP must be synthesized from glucose in the mitochondria in the glucose hexophosphate shunt (also called the pentose phosphate pathway) where a carbon atom is removed tediously by enzymatic action from glucose and phosphorylated over from 72 to 96 hours to provide the phosphorylated ribose radical. […]
smiles,measurement,setting,value
O=C[C@H](O)[C@H](O)[C@H](O)CO [D-ribose],large actinic keratoses on forehead and wrists,actinic keratoses,simply disappeared
same,healing,wound or burn,helps healing significantly
